pEC50, pKi: −log10 of the molar value. Read-outs that look alike come from different tables or passages of the source.

The results in this text go back to US7982042B2, “Thiozanthene derivatives as delta-opioid modulators” (priority 2003, dated 2011).

Assay [1] deals with T1, delta opioid receptor (Mus musculus, UniProt P32300).
T1 construct: host or cells: NG108-15 cells (membranes, purchased)
The assay is described as follows: [35S]GTPγS binding assay in NG108-15 cell membrane. Format: biochemical. The method, then:
NG108-15 cell membranes were purchased from Applied Cell Sciences (Rockville, Md.). An 8 mg/mL portion of membrane protein was suspended in 10 mM TRIS-HC pH 7.2, 2 mM EDTA, 10% sucrose.
Membranes were maintained at 4-8° C. A 1 mL portion of membranes was added into 10 mL cold binding assay buffer. The assay buffer contained 50 mM Tris, pH 7.6, 5 mM MgCl2, 100 mM NaCl, 1 mM DTT and 1 mM EGTA. The membrane suspension was homogenized with a Polytron for 2 times and centrifuged at 3000 rpm for 10 min. The supernatent was then centrifuged at 18,000 rpm for 20 min. The pellet was saved in a tube and 10 ml assay buffer was added into the tube. The pellet and buffer were mixed with a Polytron.
The pellet membranes (75 μg/ml) were preincubated with SPA (10 mg/ml) at 25° C. for 45 min in the assay buffer. […] GTPγS in the same Tris buffer containing 100 μM GDP in total volume of 200 μl. Increasing concentrations of receptor agonists were used to stimulate [^35S] GTPγS binding. The basal binding was tested in the absent agonists and no specific binding was tested in the present 10 μM unlabeled GTPγS. The data were analyzed on a Top counter.
% of Basal=(stimulate−non specific)*100/(basal−non specific). EC50 values are calculated using a Prism program.

Assay [2] concerns the target T2, Rat brain delta opioid receptor (Rattus norvegicus, UniProt P33533).
T2 construct: from tissue; host or cells: rat brain
The assay can be described thus: Rat brain delta opioid receptor binding. As to conditions: rDOR Ki.

The target in assay [3] is T3, human delta opioid receptor (Homo sapiens, UniProt P41143).
T3 construct: purchased Receptor Biology, Inc. (Baltimore, Md.); host or cells: CHO cells expressing the human delta receptor (membranes)
The assay is described as follows: [35S]GTPγS binding assay in CHO-hδ cell membranes. Format: biochemical. As to conditions: hDOR GTPγS EC50, human delta opioid receptor GTPγS functional assay.

Assay [4] has as its target T4, Rat brain mu opioid receptor (Rattus norvegicus, UniProt P33535).
T4 construct: from tissue; host or cells: forebrain of male Sprague Dawley rats
The assay is described as follows: Rat brain mu opioid receptor binding assay ([3H]DAMGO).

For assay [5], the system named is mice. The assay is described as follows: Mouse Abdominal Irritant Test (MAIT). It is filed as in vivo. As to conditions: @ 30 (dose printed in the cell). The method, then: The procedure used was that described by Collier et al. (1968), with minor modifications. Thirty minutes after the administration of test drug, the animals received an i.p. injection of 5.5 mg/kg of acetylcholine bromide. The mice were then placed into large glass animal jars and were continuously observed for the first occurrence of a characteristic behavioral response (twisting and elongation of the body which extends throughout the hindlimbs) within the specified observation period of 10 minutes. […] Data % of Basal=(stimulate−non-specific)*100/(basal−non-specific). EC50 value values are calculated using a Prism program.

Assay [6] concerns the target T5, human mu opioid receptor (Homo sapiens, UniProt P35372).
T5 construct: purchased Receptor Biology, Inc. (Baltimore, Md.); host or cells: CHO cells expressing the human mu receptor (membranes)
The assay can be described thus: [35S]GTPγS binding assay in CHO-hμ cell membranes. Format: biochemical. As to conditions: inhibition relative to 1 uM DAMGO, read-out: hMOR GTPγS % I @10 μM. The method, then:
CHO-hμ cell membranes are purchased from Receptor Biology, Inc. (Baltimore, Md.). About 10 mg/ml of membrane protein is suspended in 10 mM TRIS-HC pH 7.2, 2 mM EDTA, 10% sucrose.
Membranes are maintained at 4-8° C. 1 ml of membranes is added into 15 ml cold binding assay buffer. The assay buffer contains 50 mM HEPES, pH 7.6, 5 mM MgCl2, 100 mM NaCl, 1 mM DTT and 1 mM EDTA. The membrane suspension is homogenized with a Polytron 2 times and centrifuged at 3000 rpm for 10 min. The supernatant is then centrifuged at 18,000 rpm for 20 min. The pellet is saved in a tube and 10 ml assay buffer is added to the tube. The pellet and buffer are mixed with a Polytron.
The pellet membranes (20 μg/ml) are preincubated with SPA (10 mg/ml) at 25 C′ for 45 min in the assay buffer. The SPA (5 mg/ml) coupled with membranes (10 μg/ml) is then incubated with 0.5 nM [^35S]GTPgS in the same HEPES buffer containing 50 μM GDP in total volume of 200 μl. Increasing concentrations of receptor agonists are used to stimulate [^35S]GTPgS binding. The basal binding is tested in the absence of agonists and non-specific binding is tested in the present 10 μM unlabeled GTPγS. The data are analyzed on a Top counter.
% of Basal=(stimulate−non-specific)*100/(basal−non specific). % inhibition value values are calculated using a formula, % Inhibition=(% Basal of 1 uM DAMGO−% Basal of compound)*100/(% Basal of 1 uM DAMGO−100)

Where [7] appears, read: DOR GTPγS EC50, delta opioid receptor GTPγS functional assay.

T3 sequence (P41143 whole entry): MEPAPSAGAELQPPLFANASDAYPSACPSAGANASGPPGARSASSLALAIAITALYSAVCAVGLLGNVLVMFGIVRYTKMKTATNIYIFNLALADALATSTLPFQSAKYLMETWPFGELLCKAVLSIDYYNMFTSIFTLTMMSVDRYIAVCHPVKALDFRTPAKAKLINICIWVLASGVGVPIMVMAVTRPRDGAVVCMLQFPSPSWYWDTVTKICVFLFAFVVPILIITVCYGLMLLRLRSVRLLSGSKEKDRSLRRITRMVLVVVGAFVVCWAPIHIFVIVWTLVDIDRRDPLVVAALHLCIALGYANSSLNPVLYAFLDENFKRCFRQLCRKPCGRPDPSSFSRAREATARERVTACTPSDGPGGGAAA
T2 sequence (P33533 whole entry): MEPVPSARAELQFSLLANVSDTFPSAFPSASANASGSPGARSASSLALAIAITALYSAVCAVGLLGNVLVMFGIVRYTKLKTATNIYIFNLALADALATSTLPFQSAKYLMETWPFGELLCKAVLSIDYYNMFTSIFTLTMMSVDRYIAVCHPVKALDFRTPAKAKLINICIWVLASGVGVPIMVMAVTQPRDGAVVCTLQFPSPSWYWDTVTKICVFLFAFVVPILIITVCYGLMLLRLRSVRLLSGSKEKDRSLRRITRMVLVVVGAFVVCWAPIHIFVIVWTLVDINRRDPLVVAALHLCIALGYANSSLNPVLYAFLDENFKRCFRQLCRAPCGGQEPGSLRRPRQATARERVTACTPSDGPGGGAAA
T4 sequence (P33535 whole entry): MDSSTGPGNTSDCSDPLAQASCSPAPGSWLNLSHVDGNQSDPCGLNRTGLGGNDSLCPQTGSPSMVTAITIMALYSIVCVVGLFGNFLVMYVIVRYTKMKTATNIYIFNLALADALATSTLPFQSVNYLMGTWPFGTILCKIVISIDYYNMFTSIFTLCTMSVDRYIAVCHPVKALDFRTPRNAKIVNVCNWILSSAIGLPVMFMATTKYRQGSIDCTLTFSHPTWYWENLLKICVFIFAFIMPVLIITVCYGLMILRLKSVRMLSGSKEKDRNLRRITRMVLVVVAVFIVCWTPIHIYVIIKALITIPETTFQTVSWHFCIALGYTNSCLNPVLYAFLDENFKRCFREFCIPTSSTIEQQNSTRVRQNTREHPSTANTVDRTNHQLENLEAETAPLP
T1 sequence (P32300 whole entry): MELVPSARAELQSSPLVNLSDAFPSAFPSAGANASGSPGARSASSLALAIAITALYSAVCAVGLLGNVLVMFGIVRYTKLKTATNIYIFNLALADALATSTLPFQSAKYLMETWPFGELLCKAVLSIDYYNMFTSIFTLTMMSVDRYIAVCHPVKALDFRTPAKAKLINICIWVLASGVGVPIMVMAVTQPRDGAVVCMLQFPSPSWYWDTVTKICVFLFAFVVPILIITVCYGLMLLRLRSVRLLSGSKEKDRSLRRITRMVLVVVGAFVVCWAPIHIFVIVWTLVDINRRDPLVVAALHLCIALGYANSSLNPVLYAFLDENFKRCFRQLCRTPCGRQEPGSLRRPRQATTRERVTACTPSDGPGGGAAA
T5 sequence (P35372 whole entry): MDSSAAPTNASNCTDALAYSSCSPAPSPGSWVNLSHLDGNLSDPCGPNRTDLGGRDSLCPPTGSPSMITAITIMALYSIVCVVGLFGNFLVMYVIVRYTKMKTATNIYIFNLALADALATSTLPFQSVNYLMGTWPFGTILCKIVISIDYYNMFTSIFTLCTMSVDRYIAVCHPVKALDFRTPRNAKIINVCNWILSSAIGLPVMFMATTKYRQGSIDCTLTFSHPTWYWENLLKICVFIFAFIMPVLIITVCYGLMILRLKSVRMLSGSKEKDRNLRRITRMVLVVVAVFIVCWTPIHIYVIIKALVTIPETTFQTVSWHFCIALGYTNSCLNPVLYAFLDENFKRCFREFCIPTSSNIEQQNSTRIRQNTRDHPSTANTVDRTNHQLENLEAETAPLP

With `CCN(CC)C(=O)c1ccc2c(c1)Oc1ccccc1C2=C1CC2CCC(C1)N2` (single isomer, unassigned) [Compound 52, 9-(8-Aza-bicyclo[3.2.1]oct-3-ylidene)-9H-xanthene-3-carboxylic acid diethylamide], the pEC50 in assay [1] (setting [7]) is 7.18; in assay [3] it was 8.35. Moreover, the pKi is 9.21 in assay [2] and less than 7.00 in assay [4] (rMOR Ki).

Regarding `CCN(CC)C(=O)c1ccc2c(c1)Oc1ccccc1C2=C1CC2CCC(C1)N2Cc1ccoc1` [Compound 25, 9-(8-Furan-3-ylmethyl-8-aza-bicyclo[3.2.1]oct-3-ylidene)-9H-xanthene-3-carboxylic acid diethylamide], the pKi is 11.00 in assay [2] and 6.06 in assay [4] (rMOR Ki). Also, the pEC50 in assay [3] was 8.86. Besides, in assay [5], the “MAIT % I” value is 30(@ 30) %. Besides, the inhibition at 10 µM in assay [6] is 74%.

Take `CCN(CC)C(=O)c1ccc2c(c1)Oc1ccccc1C2=C1CC2CCC(C1)N2` (single isomer, unassigned) [Compound 53, 9-(8-Aza-bicyclo[3.2.1]oct-3-ylidene)-9H-xanthene-3-carboxylic acid diethylamide]: the pEC50 in assay [1] (setting [7]) is 5.69; in assay [3], 6.59. Moreover, the pKi was 7.30 in assay [2] and less than 7.00 in assay [4] (read-out: rMOR Ki).

Consider `CCN(CC)C(=O)c1ccc2c(c1)Sc1ccccc1C2=C1CC2CCC(C1)N2` (single isomer, unassigned) [Compound 62, 9-(8-Aza-bicyclo[3.2.1]oct-3-ylidene)-9H-thioxanthene-3-carboxylic acid diethylamide], for which the pEC50 in assay [1] (setting [7]) is 8.08. Besides, the pKi is 8.53 in assay [2] and 6.13 in assay [4] (rMOR Ki).

On to `CCNC(=O)c1ccc2c(c1)Oc1ccccc1C2=C1CC2CCC(C1)N2` (single isomer, unassigned) [Compound 55], for which the pEC50 in assay [1] (delta opioid receptor GTPγS functional assay, read-out: DOR GTPγS EC50) was less than 6.00. Also, the pKi in assay [2] is 7.18; in assay [4] (read-out: rMOR Ki) it was 5.73.

As for `CCN(CC)C(=O)c1ccc2c(c1)Oc1c(cccc1-c1ccsc1)C2=C1CC2CCC(C1)N2` [Compound 99, 9-(8-Aza-bicyclo[3.2.1]oct-3-ylidene)-5-thiophen-3-yl-9H-xanthene-3-carboxylic acid diethylamide], the negative logarithm of the EC50 (pEC50) in assay [1] (setting [7]) was 7.90. For the same compound, the pKi in assay [2] was 7.71; in assay [4] (rMOR Ki) it was 5.46.

In the case of `CCN(CC)C(=O)c1ccc2c(c1)Sc1ccccc1C2=C1CC2CCC(C1)N2` (single isomer, unassigned) [Compound 61, 9-(8-Aza-bicyclo[3.2.1]oct-3-ylidene)-9H-thioxanthene-3-carboxylic acid diethylamide], the pEC50 in assay [1] (setting [7]) was 6.73. Also, the pKi in assay [2] is 6.88; in assay [4] (rMOR Ki), 5.14.

In assay [1] (setting [7]), `CCN(CC)C(=O)c1ccc2c(c1)Oc1c(OC)cccc1C2=C1CC2CCC(C1)N2` [Compound 68, 9-(8-Aza-bicyclo[3.2.1]oct-3-ylidene)-5-methoxy-9H-xanthene-3-carboxylic acid diethylamide] had a pEC50 of 7.66. Moreover, the figures for the pKi in assay [2] and in assay [4] (rMOR Ki) were 9.13 and 5.89, respectively.
